Experimental data from patent publication US10266497B2 (ABIDE THERAPEUTICS, INC., priority 2017, dated 2019).

Columns and labels:
FAAH [1] = target: T1, FAAH (Mus musculus, UniProt O08914); experiment: In vitro competitive activity-based protein profiling, FAAH, mouse; conditions: read-out: FAAH % inh. 1 μM (mouse)
T1 sequence (O08914 1-579): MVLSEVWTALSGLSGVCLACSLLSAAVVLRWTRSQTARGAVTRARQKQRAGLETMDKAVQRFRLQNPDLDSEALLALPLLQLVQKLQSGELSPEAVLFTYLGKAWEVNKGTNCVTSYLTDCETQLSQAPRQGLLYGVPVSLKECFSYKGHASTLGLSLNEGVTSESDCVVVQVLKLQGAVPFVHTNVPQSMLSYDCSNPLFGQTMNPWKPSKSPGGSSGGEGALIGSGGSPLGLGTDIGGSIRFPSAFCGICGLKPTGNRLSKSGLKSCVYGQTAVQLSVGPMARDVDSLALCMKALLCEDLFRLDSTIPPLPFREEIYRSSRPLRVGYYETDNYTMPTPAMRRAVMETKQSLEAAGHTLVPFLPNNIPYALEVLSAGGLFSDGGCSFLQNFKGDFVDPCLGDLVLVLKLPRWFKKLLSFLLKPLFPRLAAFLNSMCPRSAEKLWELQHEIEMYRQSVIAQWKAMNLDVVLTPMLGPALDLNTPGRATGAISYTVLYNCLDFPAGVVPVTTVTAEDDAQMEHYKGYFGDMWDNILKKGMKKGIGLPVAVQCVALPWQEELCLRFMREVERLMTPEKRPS

MAGL [2] = target: T2, MAGL (Mus musculus, UniProt O35678); experiment: In vitro competitive activity-based protein profiling, MAGL, mouse; conditions: read-out: MAGL % inh. 1 μM (mouse)
T2 sequence (O35678 1-303): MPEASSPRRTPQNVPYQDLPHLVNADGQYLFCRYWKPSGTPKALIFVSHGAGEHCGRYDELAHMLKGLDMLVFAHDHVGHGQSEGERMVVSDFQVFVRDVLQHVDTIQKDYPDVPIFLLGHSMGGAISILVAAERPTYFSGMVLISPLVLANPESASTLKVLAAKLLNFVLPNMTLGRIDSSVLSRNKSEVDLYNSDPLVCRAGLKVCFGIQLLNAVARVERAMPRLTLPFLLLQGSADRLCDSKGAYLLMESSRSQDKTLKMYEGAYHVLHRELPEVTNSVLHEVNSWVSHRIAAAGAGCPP

FAAH [3] = target: T3, FAAH (Homo sapiens, UniProt O00519); experiment: In vitro competitive activity-based protein profiling, FAAH, human; conditions: for inhibition at 1 µM: read-out: FAAH % inh. 1 μM (human)
T3 sequence (O00519 1-579): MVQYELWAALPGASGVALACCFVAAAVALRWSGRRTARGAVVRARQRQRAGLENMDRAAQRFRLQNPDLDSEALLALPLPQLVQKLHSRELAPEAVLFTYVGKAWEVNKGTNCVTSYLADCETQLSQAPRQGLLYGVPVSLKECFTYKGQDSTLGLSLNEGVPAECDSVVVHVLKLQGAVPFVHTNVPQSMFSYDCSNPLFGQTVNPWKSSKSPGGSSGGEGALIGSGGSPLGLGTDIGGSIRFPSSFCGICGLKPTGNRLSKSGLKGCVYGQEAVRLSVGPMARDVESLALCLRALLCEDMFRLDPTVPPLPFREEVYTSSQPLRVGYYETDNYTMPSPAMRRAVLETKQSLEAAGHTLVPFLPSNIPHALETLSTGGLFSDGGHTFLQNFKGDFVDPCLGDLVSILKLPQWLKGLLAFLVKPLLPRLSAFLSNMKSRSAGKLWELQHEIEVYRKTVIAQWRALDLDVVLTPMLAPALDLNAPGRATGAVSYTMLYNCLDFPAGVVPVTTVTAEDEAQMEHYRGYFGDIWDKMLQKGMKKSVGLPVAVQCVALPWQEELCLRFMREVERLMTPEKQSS

MAGL [4] = target: T4, MAGL (Homo sapiens, UniProt Q99685); experiment: In vitro competitive activity-based protein profiling, MAGL, human; conditions: read-out: MAGL % inh. 1 μM (human)
T4 sequence (Q99685 1-303): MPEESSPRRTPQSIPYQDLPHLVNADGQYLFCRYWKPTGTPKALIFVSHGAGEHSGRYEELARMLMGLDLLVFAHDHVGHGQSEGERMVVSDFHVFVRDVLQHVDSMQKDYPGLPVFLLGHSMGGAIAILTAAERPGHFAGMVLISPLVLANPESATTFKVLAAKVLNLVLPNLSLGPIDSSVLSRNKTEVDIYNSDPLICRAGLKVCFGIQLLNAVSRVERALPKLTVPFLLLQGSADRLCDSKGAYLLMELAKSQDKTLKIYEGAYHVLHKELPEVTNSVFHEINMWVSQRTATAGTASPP

Row | SMILES | inhibition at 1 µM (FAAH [1]) | inhibition at 1 µM (MAGL [2]) | inhibition at 1 µM (FAAH [3]) | IC50 (FAAH [3]) | inhibition at 1 µM (MAGL [4])
1 | O=C(O)c1ccn(C(=O)N2CCN(Cc3cccc(Oc4ccccc4)c3)CC2)n1 [Example 2, 1-(4-(3-phenoxybenzyl)piperazine-1-carbonyl)-1H-pyrazole-3-carboxylic Acid] | 25 to 50% | > 75% |  |  | 
2 | O=C(O)c1ccn(C(=O)N2CCC(Oc3cccc(Cl)c3N3CCCC3)CC2)n1 [Example 13, 1-(4-(3-Chloro-2-(pyrrolidin-1-yl)phenoxy)piperidine-1-carbonyl)-1H-pyrazole-3-carboxylic Acid] | 0 to 25% | > 75% |  |  | 
3 | O=C(O)c1ccn(C(=O)N2C[C@H]3C[C@H](OCc4ccccc4Cl)C[C@H]3C2)n1 [Example 15, 1-(trans-5-((2-Chlorobenzyl)oxy)octahydrocyclopenta[c]pyrrole-2-carbonyl)-1H-pyrazole-3-carboxylic Acid] | 25 to 50% |  | > 75% |  | 
4 | NC(=O)c1ccn(C(=O)N2CC3CN(Cc4ccc(N5CCOCC5)cc4C(F)(F)F)CC3C2)n1 (stereo not drawn) [Example 17, 1-(5-(4-Morpholino-2-(trifluoromethyl)benzyl)octahydropyrrolo[3,4-c]pyrrole-2-carbonyl)-1H-pyrazole-3-carboxamide] | > 75% | > 75% |  |  | 
5 | C[C@@H]1CC[C@H](C)N1c1cc(C(F)(F)F)ccc1CN1CCCC12CCN(C(=O)n1ccc(C(=O)O)n1)CC2 [Example 80, 1-(1-(2-((2R,5S)-2,5-dimethylpyrrolidin-1-yl)-4-(trifluoromethyl)benzyl)-1,8-diazaspiro[4.5]decane-8-carbonyl)-1H-pyrazole-3-carboxylic acid] | 0 to 25% |  | 0 to 25% |  | 
6 | O=C(O)c1ccn(C(=O)N2CC3CN(Cc4ccc(C(F)(F)F)cc4)CC3C2)n1 (stereo not drawn) [Example 96, 1-(5-(4-(trifluoromethyl)benzyl)octahydro-pyrrolo[3,4-c]pyrrole-2-carbonyl)-1H-pyrazole-3-carboxylic acid] | 25 to 50% | > 75% |  |  | 
7 | O=C(O)c1ccn(C(=O)N2CCC3(CCN(Cc4ccc(-c5ccccc5)cc4C(F)(F)F)C3)CC2)n1 [Example 170, 1-(2-((3-(trifluoromethyl)-[1,1′-biphenyl]-4-yl)methyl)-2,8-diazaspiro[4.5]decane-8-carbonyl)-1H-pyrazole-3-carboxylic acid] |  |  | > 75% | 100 to 1000 nM | > 75%
8 | O=C(O)c1ccn(C(=O)N2CCN(Cc3cccc(Oc4ccnnc4)c3)CC2)n1 [Example 177, 1-(4-(3-(pyridazin-4-yloxy)benzyl)pipera-zine-1-carbonyl)-1H-pyrazole-3-carboxylic acid] |  |  | 0 to 25% |  | 25 to 50%
9 | NC(=O)c1ccn(C(=O)N2CCC3(CCN(Cc4cc(F)cc(Cl)c4)C3)CC2)n1 [Example 178, 1-(2-(3-chloro-5-fluorobenzyl)-2,8-diazaspiro[4.5]decane-8-carbonyl)-1H-pyrazole-3-carboxamide] |  |  | > 75% |  | > 75%
10 | NC(=O)c1ccn(C(=O)N2CCN(Cc3cccc(-c4cncnc4)c3)CC2)n1 [Example 179, 1-(4-(3-(pyrimidin-5-yl)benzyl)piperazine-1-carbonyl)-1H-pyrazole-3-carboxamide] |  |  | 50 to 75% |  | > 75%
11 | O=C(O)c1ccn(C(=O)N2CCC3(CCCN3Cc3ccc(Cl)cc3N3CCCC3)CC2)n1 [Example 180, 1-(1-(4-chloro-2-(pyrrolidin-1-yl)benzyl)-1,8-diazaspiro[4.5]decane-8-carbonyl)-1H-pyrazole-3-carboxylic acid] |  |  | 0 to 25% |  | > 75%
12 | O=C(O)c1ccn(C(=O)N2CC3CN(Cc4ccc(Cl)cc4)CC3C2)n1 (stereo not drawn) [Example 183, 1-(5-(4-chlorobenzyl)octa-hydropyrrolo[3,4-c]pyrrole-2-carbonyl)-1H-pyrazole-3-carboxylic acid] | 25 to 50% | 25 to 50% |  |  | 
13 | CN(Cc1ccccc1Cl)[C@H]1C[C@@H]2CN(C(=O)n3ccc(C(=O)O)n3)C[C@@H]2C1 [Example 184, 1-(trans-5-((2-chlorobenzyl) (methyl)amino)octa-hydrocyclopenta[c]pyrrole-2-carbonyl)-1H-pyrazole-3-carboxylic] | 25 to 50% | 0 to 25% |  |  | 
14 | NC(=O)c1ccn(C(=O)N2CCC3(CCN(Cc4cc(Cl)cc(C(F)(F)F)c4)C3)CC2)n1 [Example 196, 1-(2-(3-chloro-5-(trifluoromethyl)benzyl)-2,8-diazaspiro[4.5]decane-8-carbonyl)-1H-pyrazole-3-carboxamide] |  |  | > 75% |  | > 75%
15 | NC(=O)c1ccn(C(=O)N2CCN(Cc3cccc(Oc4ccccc4)c3)CC2)n1 [Example 198, 1-(4-(3-phenoxybenzyl)pi-perazine-1-carbonyl)-1H-pyrazole-3-carboxamide] | > 75% | > 75% |  |  | 
16 | CN(Cc1ccccc1Cl)[C@H]1C[C@@H]2CN(C(=O)n3ccc(C(N)=O)n3)C[C@@H]2C1 [Example 200, 1-(trans-5-((2-chlorobenzyl) (methyl)amino)octa-hydrocyclopenta[c]pyrrole-2-carbonyl)-1H-pyrazole-3-carboxamide] | > 75% | > 75% |  |  | 
17 | NC(=O)c1ccn(C(=O)N2CC3CN(Cc4cc(Cl)cc(C(F)(F)F)c4)CC3C2)n1 (stereo not drawn) [Example 201, 1-(5-(3-chloro-5-(trifluoromethyl)benzyl)octahydro-pyrrolo[3,4-c]pyrrole-2-carbonyl)-1H-pyrazole-3-carboxamide] | > 75% | > 75% |  |  | 
18 | NC(=O)c1ccn(C(=O)N2CC3CN(Cc4cc(Cl)ccc4Cl)CC3C2)n1 (stereo not drawn) [Example 202, 1-(5-(2,5-dichlorobenzyl)octa-hydropyrrolo[3,4-c]pyrrole-2-carbonyl)-1H-pyrazole-3-carboxamide] | > 75% | > 75% |  |  | 
19 | CN(Cc1ccccc1C(F)(F)F)[C@@H]1C[C@@H]2CN(C(=O)n3ccc(C(N)=O)n3)C[C@@H]2C1 [Example 204, 1-(cis-5-(methyl(2-(trifluoromethyl)benzyl)amino)octa-hydrocyclopenta[c]pyrrole-2-carbonyl)-1H-pyrazole-3-carboxamide] | > 75% | > 75% |  |  | 
20 | CN(Cc1ccc(C(F)(F)F)cc1)[C@@H]1C[C@@H]2CN(C(=O)n3ccc(C(N)=O)n3)C[C@@H]2C1 [Example 205, 1-(cis-5-(methyl(4-(trifluoromethyl)benzyl)amino)octa-hydrocyclopenta[c]pyrrole-2-carbonyl)-1H-pyrazole-3-carboxamide] | > 75% | > 75% |  |  | 
21 | CN(Cc1ccccc1Cl)[C@@H]1C[C@@H]2CN(C(=O)n3ccc(C(N)=O)n3)C[C@@H]2C1 [Example 206] | > 75% | > 75% |  |  | 
22 | NC(=O)c1ccn(C(=O)N2CC3CN(Cc4cccc(C(F)(F)F)c4)CC3C2)n1 (stereo not drawn) [Example 208, 1-(5-(3-(trifluoromethyl)benzyl)octahydro-pyrrolo[3,4-c]pyrrole-2-carbonyl)-1H-pyrazole-3-carboxamide] | > 75% | > 75% |  |  | 
